In US9422267B2, “Fused pyrimidine compounds and use thereof” (Medivation Technologies, Inc., priority 2012, dated 2016):

Legend:
[1] = tested on: Akt phosphorylation induced by IGF-1R in HT-29 cells; assay: Western blot analysis of Akt phosphorylation induced by IGF-1R; type: cell-based, Human; settings: then IGF-1 10 ng/mL 10 min, HT-29
[2] = tested on: HL-60; assay: Cell Titer-Glo cell viability: HL-60; type: cell-based, human; settings: Homo sapiens, HL-60, 72 h
Protocol: (§1) This assay quantitates the ATP present in order to determine the number of viable cells in culture. Briefly, the compounds were incubated with the cells for 72 h, followed by cell lysis. The resulting luminescent signal is proportional to the amount of ATP present and, therefore, directly proportional to the number of cells present in culture.
(§2) Compound nos. […] These cell lines are derived from human lung carcinoma, colon adenocarcinoma, colon adenocarcinoma, colon carcinoma, acute promyelocytic leukemia, colon adenocarcinoma, colon adenocarcinoma (from metastatic site lymph node), respectively.
(§3) Compounds 2b, 5, 6b and 10a were tested along with derivatives in viability assays as described above by Caliper LifeSciences Systems (Hanover, Md.), in A549, HCT-15, HCT-116, MCF-7, MDA-MB-231, OVCAR3, T47D, COLO205, HT-29, BT-20, HCC1187, HL-60, MDA-MB-175, SW-620, and UACC812 cells.

[3] = tested on: HCT-15; assay: Cell Titer-Glo cell viability: HCT-15; type: cell-based; settings: Homo sapiens, HCT-15, 72 h, HCT15, colon carcinoma
Protocol: as §1, §2, §3

[4] = tested on: T47D; assay: Cell Titer-Glo cell viability: T47D; type: cell-based; settings: Homo sapiens, breast cancer
Protocol: (§4) Compound nos. […] This panel of cell lines includes an ER− breast carcinoma, primary breast ductal carcinoma, prostate adenocarcinoma, mammary adenocarcinoma, mammary ductal carcinoma, mammary ductal carcinoma, ovary adenocarcinoma, ER+ breast carcinoma, ER-HER2+ mammary ductal carcinoma and an ER+ mammary ductal carcinoma, respectively.
as §1, §3

[5] = tested on: UACC 812; assay: Cell Titer-Glo cell viability: UACC 812; type: cell-based; settings: Homo sapiens
Protocol: as §4, §1, §3
The inhibitory effects of Compound 8a were tested in two cell lines.

[6] = tested on: HCC 1187; assay: Cell Titer-Glo cell viability: HCC 1187; type: cell-based; settings: Homo sapiens
Protocol: as §4, §1, §3

[7] = molecular target: T1, Mer (Homo sapiens, UniProt Q12866); assay: Caliper kinase profiling: Mer; type: biochemical; settings: for inhibition at 0.01 µM: 10 nM, read-out: Average % Inh @ 10 nM
T1 construct: purchased Caliper LifeSciences (ProfilerPro Kinase Selectivity Assay Kits)
T1 sequence (Q12866 21-999): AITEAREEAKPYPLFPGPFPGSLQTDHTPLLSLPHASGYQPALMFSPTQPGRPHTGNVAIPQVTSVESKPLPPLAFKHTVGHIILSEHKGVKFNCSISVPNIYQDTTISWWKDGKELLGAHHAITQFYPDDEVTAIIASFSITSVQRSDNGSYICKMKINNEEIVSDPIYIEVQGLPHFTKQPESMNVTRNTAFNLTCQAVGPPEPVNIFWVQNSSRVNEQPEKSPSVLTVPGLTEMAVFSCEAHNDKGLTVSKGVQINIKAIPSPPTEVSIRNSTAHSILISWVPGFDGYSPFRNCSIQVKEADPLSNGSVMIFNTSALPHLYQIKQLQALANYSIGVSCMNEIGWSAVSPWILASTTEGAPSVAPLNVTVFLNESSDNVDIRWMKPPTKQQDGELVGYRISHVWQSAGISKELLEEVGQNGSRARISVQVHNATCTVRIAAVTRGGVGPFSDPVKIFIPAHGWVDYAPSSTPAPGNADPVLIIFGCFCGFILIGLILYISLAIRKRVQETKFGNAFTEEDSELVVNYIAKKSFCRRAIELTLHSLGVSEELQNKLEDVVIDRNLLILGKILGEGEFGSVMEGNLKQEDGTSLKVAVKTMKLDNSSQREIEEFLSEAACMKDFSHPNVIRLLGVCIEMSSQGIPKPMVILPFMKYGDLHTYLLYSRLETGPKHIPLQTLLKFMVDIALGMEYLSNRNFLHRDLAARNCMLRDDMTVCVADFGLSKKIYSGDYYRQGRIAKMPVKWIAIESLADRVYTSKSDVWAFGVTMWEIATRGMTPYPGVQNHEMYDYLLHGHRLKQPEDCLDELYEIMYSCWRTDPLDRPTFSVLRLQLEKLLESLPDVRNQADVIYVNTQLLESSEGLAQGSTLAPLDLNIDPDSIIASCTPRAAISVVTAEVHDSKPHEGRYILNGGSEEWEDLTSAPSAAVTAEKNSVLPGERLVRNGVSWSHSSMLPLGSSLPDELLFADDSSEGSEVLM

[8] = molecular target: T2, MET (Homo sapiens, UniProt P08581); assay: Caliper kinase profiling: MET; type: biochemical; settings: for inhibition at 0.01 µM: 10 nM, read-out: Average % Inh @ 10 nM
T2 construct: purchased Caliper LifeSciences (ProfilerPro Kinase Selectivity Assay Kits)
T2 sequence (P08581 25-1390): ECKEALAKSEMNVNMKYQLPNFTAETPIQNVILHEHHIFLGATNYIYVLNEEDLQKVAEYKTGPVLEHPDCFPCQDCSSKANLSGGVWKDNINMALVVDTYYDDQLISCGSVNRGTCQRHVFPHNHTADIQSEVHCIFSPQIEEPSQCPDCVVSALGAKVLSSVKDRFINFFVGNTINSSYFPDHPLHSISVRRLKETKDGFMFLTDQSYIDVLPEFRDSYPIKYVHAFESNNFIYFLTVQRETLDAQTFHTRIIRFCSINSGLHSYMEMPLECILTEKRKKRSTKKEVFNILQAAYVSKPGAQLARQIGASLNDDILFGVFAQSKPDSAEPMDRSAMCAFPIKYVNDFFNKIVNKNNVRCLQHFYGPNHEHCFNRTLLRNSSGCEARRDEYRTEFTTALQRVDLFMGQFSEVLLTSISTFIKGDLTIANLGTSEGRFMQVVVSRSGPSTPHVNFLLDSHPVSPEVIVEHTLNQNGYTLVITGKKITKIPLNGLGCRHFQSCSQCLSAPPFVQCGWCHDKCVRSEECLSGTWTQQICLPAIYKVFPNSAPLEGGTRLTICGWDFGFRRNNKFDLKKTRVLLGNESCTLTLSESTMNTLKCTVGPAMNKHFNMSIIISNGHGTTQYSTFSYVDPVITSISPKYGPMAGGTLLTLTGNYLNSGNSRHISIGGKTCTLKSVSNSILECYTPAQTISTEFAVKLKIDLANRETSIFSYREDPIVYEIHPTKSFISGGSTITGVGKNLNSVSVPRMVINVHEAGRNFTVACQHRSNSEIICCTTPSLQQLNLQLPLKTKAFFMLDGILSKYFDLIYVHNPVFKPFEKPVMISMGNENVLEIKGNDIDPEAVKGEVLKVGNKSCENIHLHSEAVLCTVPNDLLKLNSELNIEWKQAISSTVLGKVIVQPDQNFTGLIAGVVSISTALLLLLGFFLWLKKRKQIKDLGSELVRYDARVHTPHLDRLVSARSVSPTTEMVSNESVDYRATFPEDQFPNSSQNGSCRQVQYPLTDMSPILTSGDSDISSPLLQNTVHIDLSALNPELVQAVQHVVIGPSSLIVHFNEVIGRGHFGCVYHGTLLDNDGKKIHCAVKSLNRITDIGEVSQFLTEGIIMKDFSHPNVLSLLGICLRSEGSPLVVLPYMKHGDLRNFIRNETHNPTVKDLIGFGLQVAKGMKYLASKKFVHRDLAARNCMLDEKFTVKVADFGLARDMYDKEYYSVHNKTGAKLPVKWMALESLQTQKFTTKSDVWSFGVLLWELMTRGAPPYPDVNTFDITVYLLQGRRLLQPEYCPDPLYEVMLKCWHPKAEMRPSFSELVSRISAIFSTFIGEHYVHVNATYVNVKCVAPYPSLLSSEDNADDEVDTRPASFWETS

[9] = molecular target: T3, ROS(ROS1) (Homo sapiens, UniProt P08922); assay: Caliper kinase profiling: ROS(ROS1); type: biochemical; settings: for inhibition at 0.01 µM: 10 nM, read-out: Average % Inh @ 10 nM
T3 construct: purchased Caliper LifeSciences (ProfilerPro Kinase Selectivity Assay Kits)
T3 sequence (P08922 28-2347): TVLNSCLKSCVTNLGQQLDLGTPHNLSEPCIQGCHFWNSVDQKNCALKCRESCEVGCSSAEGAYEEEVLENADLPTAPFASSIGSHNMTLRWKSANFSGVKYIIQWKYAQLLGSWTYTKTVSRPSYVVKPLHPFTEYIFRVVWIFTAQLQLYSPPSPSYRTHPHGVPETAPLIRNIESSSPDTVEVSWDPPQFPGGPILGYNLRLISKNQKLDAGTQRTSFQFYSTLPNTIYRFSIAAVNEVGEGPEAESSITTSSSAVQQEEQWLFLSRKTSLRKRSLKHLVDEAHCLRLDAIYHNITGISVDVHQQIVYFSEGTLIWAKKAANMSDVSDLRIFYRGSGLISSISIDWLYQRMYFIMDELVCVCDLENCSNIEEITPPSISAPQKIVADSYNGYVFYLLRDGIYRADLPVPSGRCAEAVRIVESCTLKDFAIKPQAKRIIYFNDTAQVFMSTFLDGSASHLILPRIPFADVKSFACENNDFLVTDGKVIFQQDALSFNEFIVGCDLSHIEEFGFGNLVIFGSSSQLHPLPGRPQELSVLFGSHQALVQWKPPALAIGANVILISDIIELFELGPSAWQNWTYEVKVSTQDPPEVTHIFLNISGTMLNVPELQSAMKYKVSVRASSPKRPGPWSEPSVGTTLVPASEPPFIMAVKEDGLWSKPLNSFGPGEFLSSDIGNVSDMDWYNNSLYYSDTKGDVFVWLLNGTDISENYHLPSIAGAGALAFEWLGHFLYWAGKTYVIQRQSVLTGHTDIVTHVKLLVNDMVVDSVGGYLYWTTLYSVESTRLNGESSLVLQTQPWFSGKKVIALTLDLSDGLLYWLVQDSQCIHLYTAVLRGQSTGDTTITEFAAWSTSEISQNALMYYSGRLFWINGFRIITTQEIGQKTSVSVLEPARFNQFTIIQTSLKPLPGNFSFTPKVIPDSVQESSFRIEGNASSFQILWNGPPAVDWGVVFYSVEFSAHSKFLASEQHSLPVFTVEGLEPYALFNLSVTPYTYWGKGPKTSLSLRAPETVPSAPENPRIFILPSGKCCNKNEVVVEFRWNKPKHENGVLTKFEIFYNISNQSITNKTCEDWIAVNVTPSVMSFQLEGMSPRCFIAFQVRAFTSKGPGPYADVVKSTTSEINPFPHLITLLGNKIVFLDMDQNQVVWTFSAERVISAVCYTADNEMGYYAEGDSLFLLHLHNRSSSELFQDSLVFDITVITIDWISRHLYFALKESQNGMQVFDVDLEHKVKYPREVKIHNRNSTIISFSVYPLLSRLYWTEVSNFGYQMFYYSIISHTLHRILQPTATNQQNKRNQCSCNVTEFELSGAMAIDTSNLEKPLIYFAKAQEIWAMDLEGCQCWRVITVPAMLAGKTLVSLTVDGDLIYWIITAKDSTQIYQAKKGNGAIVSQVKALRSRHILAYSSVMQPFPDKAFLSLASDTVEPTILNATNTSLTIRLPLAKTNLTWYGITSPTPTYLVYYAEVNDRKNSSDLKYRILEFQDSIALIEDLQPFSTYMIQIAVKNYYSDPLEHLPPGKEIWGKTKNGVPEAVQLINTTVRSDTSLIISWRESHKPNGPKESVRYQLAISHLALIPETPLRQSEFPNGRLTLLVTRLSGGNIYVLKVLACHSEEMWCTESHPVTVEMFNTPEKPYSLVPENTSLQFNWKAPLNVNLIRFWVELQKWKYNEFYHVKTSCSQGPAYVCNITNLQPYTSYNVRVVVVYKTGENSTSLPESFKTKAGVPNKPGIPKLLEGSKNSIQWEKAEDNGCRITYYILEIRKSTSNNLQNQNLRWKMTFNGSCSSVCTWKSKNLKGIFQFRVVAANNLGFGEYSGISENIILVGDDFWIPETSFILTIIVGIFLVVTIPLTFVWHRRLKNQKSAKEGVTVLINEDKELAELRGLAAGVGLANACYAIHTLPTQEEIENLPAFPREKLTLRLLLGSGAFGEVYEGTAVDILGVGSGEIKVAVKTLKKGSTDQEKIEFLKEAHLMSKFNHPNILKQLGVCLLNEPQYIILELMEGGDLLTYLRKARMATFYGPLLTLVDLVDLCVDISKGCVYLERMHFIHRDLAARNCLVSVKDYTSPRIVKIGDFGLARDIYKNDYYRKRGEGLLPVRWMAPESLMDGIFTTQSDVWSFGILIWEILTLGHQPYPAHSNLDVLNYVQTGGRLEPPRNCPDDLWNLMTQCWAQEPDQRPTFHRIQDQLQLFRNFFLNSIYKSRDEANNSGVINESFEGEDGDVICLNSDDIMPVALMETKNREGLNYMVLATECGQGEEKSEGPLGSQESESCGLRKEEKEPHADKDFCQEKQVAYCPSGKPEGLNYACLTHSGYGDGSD
Text: ROS1 is a proto-oncogene and is highly expressed in many cancers.

[10] = molecular target: IGF1R (Homo sapiens, UniProt P08069); assay: Caliper kinase profiling: IGF1R; type: biochemical; design: purchased Caliper LifeSciences (ProfilerPro Kinase Selectivity Assay Kits); settings: for inhibition at 0.01 µM: 10 nM, read-out: Average % Inh @ 10 nM
Sequence of IGF1R (P08069 31-1367): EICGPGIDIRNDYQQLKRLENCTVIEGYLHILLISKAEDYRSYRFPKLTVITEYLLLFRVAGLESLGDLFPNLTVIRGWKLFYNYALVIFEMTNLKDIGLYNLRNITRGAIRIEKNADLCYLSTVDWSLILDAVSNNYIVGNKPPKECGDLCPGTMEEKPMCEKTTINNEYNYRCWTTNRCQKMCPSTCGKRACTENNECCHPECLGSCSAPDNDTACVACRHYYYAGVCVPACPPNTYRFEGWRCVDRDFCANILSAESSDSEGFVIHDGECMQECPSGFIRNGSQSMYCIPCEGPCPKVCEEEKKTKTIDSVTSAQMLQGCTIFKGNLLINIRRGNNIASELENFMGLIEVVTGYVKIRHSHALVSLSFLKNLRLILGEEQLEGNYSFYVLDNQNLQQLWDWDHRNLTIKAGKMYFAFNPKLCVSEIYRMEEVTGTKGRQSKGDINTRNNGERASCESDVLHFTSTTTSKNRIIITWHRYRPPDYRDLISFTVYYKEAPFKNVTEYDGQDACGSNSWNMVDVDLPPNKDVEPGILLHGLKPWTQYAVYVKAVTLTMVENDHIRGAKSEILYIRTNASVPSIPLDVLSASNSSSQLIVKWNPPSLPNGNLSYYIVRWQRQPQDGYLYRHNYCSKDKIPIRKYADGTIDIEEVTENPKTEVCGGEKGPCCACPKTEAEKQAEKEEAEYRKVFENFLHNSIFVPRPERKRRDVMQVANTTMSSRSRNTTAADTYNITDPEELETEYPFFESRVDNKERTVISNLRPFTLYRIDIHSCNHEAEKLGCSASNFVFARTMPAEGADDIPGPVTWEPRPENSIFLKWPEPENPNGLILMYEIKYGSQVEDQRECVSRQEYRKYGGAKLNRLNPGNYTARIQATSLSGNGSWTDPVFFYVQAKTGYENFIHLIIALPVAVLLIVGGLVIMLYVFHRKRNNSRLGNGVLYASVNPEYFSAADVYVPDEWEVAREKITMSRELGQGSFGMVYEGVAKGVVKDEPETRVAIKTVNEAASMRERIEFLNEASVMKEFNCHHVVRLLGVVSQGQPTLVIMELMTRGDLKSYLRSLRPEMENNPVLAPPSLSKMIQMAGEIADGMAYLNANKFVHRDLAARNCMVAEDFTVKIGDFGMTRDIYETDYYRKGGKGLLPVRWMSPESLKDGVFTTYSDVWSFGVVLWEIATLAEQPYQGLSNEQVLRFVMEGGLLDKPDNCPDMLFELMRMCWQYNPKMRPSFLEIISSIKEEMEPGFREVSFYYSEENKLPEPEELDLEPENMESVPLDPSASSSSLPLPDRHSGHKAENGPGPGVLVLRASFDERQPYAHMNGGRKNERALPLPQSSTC
Protocol: The compound was tested at concentrations of 1.0×10^−8 and 1.0×10^−9 M in the RapidKinase192™ panel in duplicate. […] The screening was performed using the Caliper EZReader2, a 4-sipper LabChip, and ProfilerPro Kinase Selectivity Assay Kits 1 and 2. The assay measures the conversion of a fluorescent peptide substrate to a phosphorylated product. Briefly, the reaction mixture was introduced through a capillary sipper onto the microfluidic chip, where the substrate and product were electrophoretically separated and detected by laser-induced fluorescence. The time-dependent fluorescence signal indicates the extent of the reaction.

[11] = HL60, promyelocytic leukemia, 72 h incubation, Cell Titer-Glo
[12] = 72 h incubation, Cell Titer-Glo
[13] = UACC 812, breast cancer, 72 h incubation, Cell Titer-Glo
[14] = HCC1187, HCC-1187, breast cancer, 72 h incubation, Cell Titer-Glo
[15] = 100 nM, read-out: Average % Inh @ 100 nM
[16] = 1 μM, read-out: Average % Inh @ 1 μM
[17] = HL60, promyelocytic leukemia (second entry of the table), 72 h
[18] = HL-60, promyelocytic leukemia, 72 h
[19] = 1 nM, read-out: Average % Inh @ 1 nM

IC50 [2, 11] [nM]	IC50 [3, 12] [nM]	IC50 [4, 12] [nM]	IC50 [6, 14] [nM]	inhibition at 0.01 µM [7] [%]	inhibition at 0.01 µM [8] [%]	inhibition at 0.01 µM ([9]; ROS (ROS1)) [%]	IC50 [2, 17] [nM]	IC50 [2, 18] [nM]	IC50 ([3]; 72 h) [nM]	inhibition at 0.01 µM [10] [%]	SMILES	phosphorylated AKT levels normalized to actin levels (pAKT/actin) ([1]; 1 nM compound 2 h)	phosphorylated AKT levels normalized to actin levels (pAKT/actin) ([1]; 10 nM compound 2 h)	phosphorylated AKT levels normalized to actin levels (pAKT/actin) ([1]; 100 nM compound 2 h)	IC50 [5, 13] [nM]	other results
< 100	< 10000	< 1000	< 1000								O=C(Nc1ccc(F)nc1)C1CCN1c1nc2c(c(Nc3cc(C4CC4)[nH]n3)n1)CCC2 (racemic) [Compound 5, 1-(4-(5-cyclopropyl-1H-pyrazol-3-ylamino)-6,7-dihydro-5H-cyclopenta[d]pyrimidin-2-yl)-N-(6-fluoropyridin-3-yl)azetidine-2-carboxamide]	0.61	0.04	0.00	< 100000	
< 1000	1000	1000	100	40 to 59	< 39	> 60	< 10	< 10000	< 10000	< 39	O=C(Nc1ccc(F)nc1)C1CCCN1c1nc2c(c(Nc3cc(C4CC4)[nH]n3)n1)CCC2 (single isomer, unassigned) [Compound 2b, 1-(4-(5-cyclopropyl-1H-pyrazol-3-ylamino)-6,7-dihydro-5H-cyclopenta[d]pyrimidin-2-yl)-N-(6-fluoropyridin-3-yl)pyrrolidine-2-carboxamide]	0.80	0.22	0.03	< 10000	inhibition at 0.1 µM [7, 15]: > 60%; inhibition at 1 µM [7, 16]: > 60%; inhibition at 0.1 µM [8, 15]: > 60%; inhibition at 1 µM [8, 16]: > 60%; inhibition at 0.1 µM ([9]; ROS (ROS1), 100 nM, read-out: Average % Inh @ 100 nM): > 60%; inhibition at 1 µM ([9]; ROS (ROS1), 1 μM, read-out: Average % Inh @ 1 μM): > 60%; inhibition at 0.1 µM [10, 15]: 40 to 59%; inhibition at 1 µM [10, 16]: > 60%
< 1000	1000	< 1000	< 1000								O=C(Nc1cnccn1)C1CCCN1c1nc2c(c(Nc3cc(C4CC4)[nH]n3)n1)CCC2 (single isomer, unassigned) [Compound 6b]	0.18	0.00	0.00	1000	phosphorylated AKT levels normalized to actin levels (pAKT/actin) ([1]; 0.1 nM compound 2 h): 0.87
				> 60	40 to 59	> 60	< 10	10	< 10000	> 60	CC(C)c1cc(Nc2nc(N3CCCC3C(=O)Nc3ccc(F)nc3)nc3c2CCC3)n[nH]1 (single isomer, unassigned) [Compound 8b]	0.31	0.04	0.02		inhibition at 0.001 µM [7, 19]: < 39%; IC50 ([7]; 8 concentrations 3.0×10^−7 to 1.0×10^−10 M): 3.84 nM; inhibition at 0.001 µM [8, 19]: < 39%; IC50 ([9]; ROS1, range of concentrations from 0.03 nM to 1): 15 nM; inhibition at 0.001 µM ([9]; ROS (ROS1), 1 nM, read-out: Average % Inh @ 1 nM): 40 to 59%; IC50 ([4]; 72 h): < 1000 nM; IC50 ([5]; UACC-812, UACC812, breast cancer, 72 h): < 10000 nM; IC50 ([6]; HCC1187, breast cancer, 72 h): < 10000 nM; inhibition at 0.001 µM [10, 19]: < 39%
